The first data set has as its system Influenza A virus. Nature of the data set: Antiviral activity against Influenza A virus (A/Puerto Rico/8/1934(H1N1)) infected in MDCK cells assessed as reduction in virus-induced cytopathogenicity incubated for 48 hrs by SRB assay. Format: functional, organism-based.
Details: not given
In the case of `COc1cc(CN2CCN(c3ccc([N+](=O)[O-])cc3)CC2)c2cc3[n+](cc2c1O)CCc1cc2c(cc1-3)OCO2.[Cl-]`, the half-maximal inhibitory concentration (IC50) – broadly, the concentration needed to halve the response being measured – was more than 50 µg/mL.
The same measure, in the same setting: in the case of `COc1cc(CN2CCN(c3ccc(OC(F)(F)F)cc3)CC2)c2cc3[n+](cc2c1O)CCc1cc2c(cc1-3)OCO2.[Cl-]` it was 8.45 µg/mL; in that of `COc1cc(CN2CCCCC2)c2cc3[n+](cc2c1O)CCc1cc2c(cc1-3)OCO2.[Cl-]`, more than 50 µg/mL; in that of `COc1cc(CN2CCN(c3ccc(C(F)(F)F)cc3)CC2)c2cc3[n+](cc2c1O)CCc1cc2c(cc1-3)OCO2.[Cl-]`, 10 µg/mL.
As for `COc1ccc(N2CCN(Cc3cc(OC)c(O)c4c[n+]5c(cc34)-c3cc4c(cc3CC5)OCO4)CC2)c(OC)c1.[Cl-]`, the IC50 came to 47.8 µg/mL.
Still for that read-out and setting: in the case of `COc1cc(CN2CCN(c3ncccn3)CC2)c2cc3[n+](cc2c1O)CCc1cc2c(cc1-3)OCO2.[Cl-]` it was 2.65 µg/mL.

Tested on in the next data set: not listed separately
Nature of the data set: Cytotoxicity against MDCK cells incubated for 48 hrs assessed as reduction in cell viability by SRB assay. Format: cell-based, Canis lupus familiaris. To be noted: dog.
Turning to `COc1cc(CN2CCN(c3ccc([N+](=O)[O-])cc3)CC2)c2cc3[n+](cc2c1O)CCc1cc2c(cc1-3)OCO2.[Cl-]`, the CC50 (commonly the concentration that lowers cell viability or growth by half) at 48 h came to 1380 µg/mL.
`COc1cc(CN2CCN(c3ccc(OC(F)(F)F)cc3)CC2)c2cc3[n+](cc2c1O)CCc1cc2c(cc1-3)OCO2.[Cl-]`: the 50% cytotoxic concentration (CC50) at 48 h came out at 312 µg/mL.
Still for that read-out and setting: the same measure for `COc1cc(CN2CCCCC2)c2cc3[n+](cc2c1O)CCc1cc2c(cc1-3)OCO2.[Cl-]`: 1640 µg/mL; for `COc1cc(CN2CCN(c3ncccn3)CC2)c2cc3[n+](cc2c1O)CCc1cc2c(cc1-3)OCO2.[Cl-]`: 223 µg/mL.

Another data set deals with Neuraminidase (Influenza A virus (A/Puerto Rico/8/1934(H1N1)), UniProt P03468). Nature of the data set: Inhibition of neuraminidase in influenza A virus (A/Puerto Rico/8/1934(H1N1)) pre-incubated for 30 mins before NA-Star substrate addition for 30 mins by luminescence based assay.
Sequence of Neuraminidase (Influenza A virus (A/Puerto Rico/8/1934(H1N1)), UniProt P03468) (P03468 whole entry): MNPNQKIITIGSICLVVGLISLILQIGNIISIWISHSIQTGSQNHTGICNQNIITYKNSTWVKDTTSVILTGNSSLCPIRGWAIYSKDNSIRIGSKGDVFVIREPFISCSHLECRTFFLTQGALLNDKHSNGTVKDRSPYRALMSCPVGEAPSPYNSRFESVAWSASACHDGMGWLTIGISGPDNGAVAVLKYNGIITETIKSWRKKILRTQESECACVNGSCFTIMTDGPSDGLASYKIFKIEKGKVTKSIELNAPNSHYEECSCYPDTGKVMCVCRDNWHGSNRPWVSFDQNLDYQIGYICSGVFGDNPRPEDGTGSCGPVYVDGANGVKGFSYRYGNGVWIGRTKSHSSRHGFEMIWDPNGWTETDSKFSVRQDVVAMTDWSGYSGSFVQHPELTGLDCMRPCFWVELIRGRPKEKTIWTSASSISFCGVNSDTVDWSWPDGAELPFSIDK
Details: not given
As for `COc1cc(CN2CCN(c3ccc([N+](=O)[O-])cc3)CC2)c2cc3[n+](cc2c1O)CCc1cc2c(cc1-3)OCO2.[Cl-]`, the affinity corresponds to a Ki of 1.33 µM.
Still for that read-out and setting: in the case of `COc1cc(CN2CCN(c3ccc(OC(F)(F)F)cc3)CC2)c2cc3[n+](cc2c1O)CCc1cc2c(cc1-3)OCO2.[Cl-]` it was 0.49 µM; in that of `COc1cc(CN2CCCCC2)c2cc3[n+](cc2c1O)CCc1cc2c(cc1-3)OCO2.[Cl-]`, 0.68 µM.
Still for that read-out and setting: in the case of `COc1cc(CN2CCN(c3ccc(C(F)(F)F)cc3)CC2)c2cc3[n+](cc2c1O)CCc1cc2c(cc1-3)OCO2.[Cl-]` it was 1.59 µM.
As for `COc1ccc(N2CCN(Cc3cc(OC)c(O)c4c[n+]5c(cc34)-c3cc4c(cc3CC5)OCO4)CC2)c(OC)c1.[Cl-]`, the inhibition constant (Ki) (usually the equilibrium dissociation constant of an inhibitor or competing ligand from its target) came to 1.59 µM.
On the same count and under the same terms, in the case of `COc1cc(CN2CCN(c3ncccn3)CC2)c2cc3[n+](cc2c1O)CCc1cc2c(cc1-3)OCO2.[Cl-]` it was 0.07 µM.

Values taken from ChEMBL document CHEMBL4177585, “Discovery of berberine based derivatives as anti-influenza agent through blocking of neuraminidase” (Bioorg Med Chem, 2017).
